# Read-outs that look alike come from different tables or passages of the source.
# Assays:
# [1] = Pharmacokinetics of the composition after oral administration; assay type: in vivo; conditions: rats, serum; for AUC(0-inf) / Cmax: rat
# Experimental: Mangiferin is suspended in 1% carboxymethyl cellulose sodium solution, the concentration of mangiferin is 25 mg/mL (Sample A).
# Berberine is suspended in 1% carboxymethyl cellulose sodium solution, the concentration of berberine is 25 mg/mL (Sample B). The composition which is composed of mangiferin and berberine in the ratio of 1:4 is suspended in 1% carboxymethyl cellulose sodium solution, the concentration of the composition is 50 mg/mL (Sample C).
# All rats were fasted for 16 hours and drunk water freely. The rats are oral administrated respectively sample A (40 mg/kg), sample B (160 mg/kg) and sample C (200 mg/kg). From the rats, 0.4 ml blood samples were taken respectively at the time of 5 minutes before oral administrated and 0 h, 1 h, 2 h, 3 h, 4 h, 5 h, 6 h, 8 h, 10 h, 12 h, 15 h, and 24 h after oral administrated. These blood samples were put into centrifuge tube containing heparin, then were centrifuged for 10 minutes, the serum is obtained.
# Serum samples are taken accurately 100 μL into centrifuge tubes, then 400 μL acetonitrile-acetic acid (9:1) is added into centrifuge tubes. The samples are whorled for 1.5 minutes, and then the samples are centrifuged 3000 r/min for 10 minutes. The supernatant was put into clear tube, dried by nitrogen, 100 μL mobile phase were put into the remnants, whorled for 1.5 minutes, then centrifuged 3000 r/min for 10 minutes. The Supernatant was put into sample bottle. All the samples are determined by HPLC. Injection volume is 20 μL.
# 4.1 Apparatus: Angilent 1100 HPLC (American Agilent Co.): include G1312A dual pump and G1313A Auto-Sampler.
# Chromatographic column: discover ODS column (250 mm×6 mm, 5 μm);
# The mobile phase: methanol-0.1% H3PO4 water.
# Velocity of flow: 1.0 ml/min.
# Detection Wavelength: 264 nm.
# [2] = tested on: Propyl dialdehyde (MDA); experiment: Propyl dialdehyde (MDA) in kidney tissue homogenate of GK rats; assay type: in vivo, Goto-Kakizaki rats (GK); conditions: oral daily 12 weeks
# Experimental: GK rats control group (n=10); mangiferin groups (10, 30, 200 mg/kg, each group 10 rats); berberine groups (10, 20, 150 mg/kg, each group 10 rats); composition group 1[[mangiferin (10 mg/kg)+berberine (10 mg/kg)], 10 rats]; composition group 2[[mangiferin (200 mg/kg)+berberine (150 mg/kg)], 10 rats]. Wistar rats are normal control group (10 rats). GK rats control group and Wistar rats group were given saline. The other groups were given test drugs. Test samples were administrated orally at the same time every day for 12 weeks. 3.3.1 Preparation of tissue homogenate: Rats were killed by femoral artery bloodletting after administration of the rats for 12-weeks. Kidney tissue of the rats were taken, the blood of kidney tissue were washed with cooling saline (4° C.), then the remnant water was absorbed with filter paper, the kidney tissue was weighed. Per gram kidney tissue was added into 10 ml saline, which was put in homogenized machine (10,000 r/min, 10 seconds, 3rd), 10% tissue homogenate was prepared, the tissue homogenate was centrifuged (4000 r/min) for 10 minutes to get supernatant, the supernatant was saved in −20° C. for determination. 3.3.2.2 Propyl dialdehyde (MDA): MDA is determined by TBA, the test box was bought from Nanjing Jiancheng Bioengineering Research Institute. […] The results have been calculated as mean±SD ( x±SD) and the comparisons of the data have been done by t-test. There are ten rats in every group. GK rats control group and wistar rats group were given saline. The other groups were given test drugs. Test samples were administrated orally at the same time every day for 12 weeks. The measurements are as same as the above experiment.
# [3] = cited from earlier work
# [4] = tested on: rat; conditions: intraperitoneal injection once; cited from earlier work
# [5] = 2.0 g once orally; cited from earlier work
# [6] = in vivo; cited from earlier work
smiles,measurement,setting,value
O=c1c2cc(O)c(O)cc2oc2cc(O)c([C@@H]3O[C@H](CO)[C@@H](O)[C@H](O)[C@H]3O)c(O)c12 [Mangiferin],AUC(0-inf),"[1]; sample A 40 mg/kg or sample C (1:4) 200 mg/kg, read-out: AUC0-∞ of mangiferin",1200 ± 391 µg·h/mL
same,Cmax,"[1]; sample A 40 mg/kg or sample C (1:4) 200 mg/kg, read-out: Cmax of mangiferin",18600 ± 1500 ng/mL
same,T1/2β of mangiferin,[1]; sample A 40 mg/kg or sample C (1:4) 200 mg/kg,4.3 ± 0.4 h
same,Measurements about oxidation MDA,[2]; 10 mg/kg,4.41 ± 0.87 nmol/mg pro
same,Measurements about oxidation MDA,[2]; 30 mg/kg,3.48 ± 0.47 nmol/mg pro
same,Measurements about oxidation MDA,[2]; 200 mg/kg,2.75 ± 0.48 nmol/mg pro
same,Solubility in water,[3],cannot dissolve in water
same,LD50,[4],365 mg/kg
COc1ccc2cc3[n+](cc2c1OC)CCc1cc2c(cc1-3)OCO2 [Berberine],AUC(0-inf),"[1]; sample B 160 mg/kg or sample C (1:4) 200 mg/kg, read-out: AUC0-∞ of berberine",3440 ± 250 µg·h/mL
same,Cmax,"[1]; sample B 160 mg/kg or sample C (1:4) 200 mg/kg, read-out: Cmax of berberine",54100 ± 2600 ng/mL
same,T1/2β of berberine,[1]; sample B 160 mg/kg or sample C (1:4) 200 mg/kg,3.5 ± 0.3 h
same,Measurements about oxidation MDA,[2]; 10 mg/kg,4.39 ± 0.90 nmol/mg pro
same,Measurements about oxidation MDA,[2]; 20 mg/kg,3.51 ± 0.46 nmol/mg pro
same,Measurements about oxidation MDA,[2]; 150 mg/kg,2.76 ± 0.40 nmol/mg pro
same,Adverse reactions,[5],we don't find any adverse reactions
same,Bioavailability,[6],very low

# From US7867979B2, “Drug composition for treating 2 type diabetes and diabetic chronicity complications” (Hainan Deze Drug Research Co., Ltd., priority 2006, dated 2011)
